For three compounds, inhibition results are on record in patent US20230133958A1, “COMPOUNDS USEFUL IN MODULATING EGFR AND PI3K” (Mekanistic Therapeutics LLC, priority 2021, published 2023).

One may read the inhibition as the drop in the measured response relative to a control, in per cent.

For test [1], the target named is EGFR (Homo sapiens, UniProt P00533). The test can be described thus: Z'-LYTE / Adapta biochemical kinase assay, EGFR. Particulars: concentration of 100 nM/liter; read-out: Percent Inhibition of target enzymes, EGFR. From the text: (§1) The Z′-LYTE® biochemical assay employs a fluorescence-based, coupled-enzyme format and is based on the differential sensitivity of phosphorylated and non-phosphorylated peptides to proteolytic cleavage. The peptide substrate is labeled with two fluorophores—one at each end—that make up a FRET pair. In the primary reaction, the kinase transfers the gamma-phosphate of ATP to a single tyrosine, serine or threonine residue in a synthetic FRET-peptide. In the secondary reaction, a site-specific protease recognizes and cleaves non-phosphorylated FRET-peptides. Phosphorylation of FRET-peptides suppresses cleavage by the Development Reagent. Cleavage disrupts FRET between the donor (i.e., coumarin) and acceptor (i.e., fluorescein) fluorophores on the FRET-peptide, whereas uncleaved, phosphorylated FRET-peptides maintain FRET. A ratiometric method, which calculates the ratio (the Emission Ratio) of donor emission to acceptor emission after excitation of the donor fluorophore at 400 nm, is used to quantitate reaction progress.
(§2) A significant benefit of this ratiometric method for quantitating reaction progress is the elimination of well-to-well variations in FRET-peptide concentration and signal intensities. As a result, the assay yields very high Z′-factor values (>0.7) at a low percent phosphorylation.
(§3) Both cleaved and uncleaved FRET-peptides contribute to the fluorescence signals and therefore to the Emission Ratio. The extent of phosphorylation of the FRET-peptide can be calculated from the Emission Ratio. The Emission Ratio will remain low if the FRET-peptide is phosphorylated (i.e., no kinase inhibition) and will be high if the FRET-peptide is non-phosphorylated (i.e., kinase inhibition).
(§4) Enzyme: The ADAPTA universal kinase assay is a homogenous, fluorescent based immunoassay for the detection of ADP. In contrast to ATP depletion assays, the ADAPTA assay is extremely sensitive to ADP formation such that a majority of the signal change occurs in the first 10-20% conversion of ATP to ADP. This makes the ADAPTA universal kinase assay ideally suited for use with low activity kinases.
(§5) The principle of the ADAPTA universal kinase assay is outlined below. The assay itself can be divided into two phases: a kinase reaction phase, and an ADP detection phase. In the kinase reaction phase, all components required for the kinase reaction are added to the well, and the reaction is allowed to incubate for 60 minutes. After the reaction, a detection solution consisting of a europium labeled anti-ADP antibody, an Alexa Fluor® 647 labeled ADP tracer, and EDTA (to stop the kinase reaction) is added to the assay well. ADP formed by the kinase reaction (in the absence of an inhibitor) will displace the Alexa Fluor® 647 labeled ADP tracer from the antibody, resulting in a decrease in the TR-FRET signal. In the presence of an inhibitor, the amount of ADP formed by the kinase reaction is reduced, and the resulting intact antibody-tracer interaction results in a high TR-FRET signal.
(§6) Test Compounds: The Test Compounds are screened in 1% DMSO (final) in the well. For 10 point titrations, 3-fold serial dilutions are conducted from the starting concentration of the customer’s choosing.
(§7) Peptide/Kinase Mixtures: All Peptide/Kinase Mixtures are diluted to a 2X working concentration in the appropriate Kinase Buffer.
(§8) ATP Solution: All ATP Solutions are diluted to a 4X working concentration in Kinase Buffer (50 mM HEPES pH 7.5, 0.01% BRIJ-35, 10 mM MgCl2,1 mM EGTA). ATP Km apparent is previously determined using a Z′-LYTE® assay.
(§9) Development Reagent Solution: The Development Reagent is diluted in Development Buffer.
(§10) Assay Protocol: Bar-coded Corning, low volume NBS, black 384-wellplate (Corning Cat. #4514) 1. 2.5 µL - 4X Test Compound or 100 nL 100X plus 2.4 µL kinase buffer. 2. 5 µL - 2X Peptide/Kinase Mixture. 3. 2.5 µL - 4X ATP Solution. 4. 30-second plate shake. 5. 60-minute Kinase Reaction incubation at room temperature. 6. 5 µL - Development Reagent Solution. 7. […]

Test [2] addresses PI3Kα (Homo sapiens, UniProt P42336). The test can be described thus: Z'-LYTE / Adapta biochemical kinase assay, PI3Kα. As to conditions: concentration of 100 nM/liter; read-out: Percent Inhibition of target enzymes, PI3K A.
Text: as §1, §2, §3, §4, §5, §6, §7, §8, §9, §10

In test [3] the target is DNA-PK (Homo sapiens, UniProt P78527). In words: Z'-LYTE / Adapta biochemical kinase assay, DNA-PK. As to conditions: concentration of 100 nM/liter; read-out: Percent Inhibition of target enzymes, DNA-PK.
Text: as §1, §2, §3, §4, §5, §6, §7, §8, §9, §10

Sequence of EGFR (P00533 25-1210): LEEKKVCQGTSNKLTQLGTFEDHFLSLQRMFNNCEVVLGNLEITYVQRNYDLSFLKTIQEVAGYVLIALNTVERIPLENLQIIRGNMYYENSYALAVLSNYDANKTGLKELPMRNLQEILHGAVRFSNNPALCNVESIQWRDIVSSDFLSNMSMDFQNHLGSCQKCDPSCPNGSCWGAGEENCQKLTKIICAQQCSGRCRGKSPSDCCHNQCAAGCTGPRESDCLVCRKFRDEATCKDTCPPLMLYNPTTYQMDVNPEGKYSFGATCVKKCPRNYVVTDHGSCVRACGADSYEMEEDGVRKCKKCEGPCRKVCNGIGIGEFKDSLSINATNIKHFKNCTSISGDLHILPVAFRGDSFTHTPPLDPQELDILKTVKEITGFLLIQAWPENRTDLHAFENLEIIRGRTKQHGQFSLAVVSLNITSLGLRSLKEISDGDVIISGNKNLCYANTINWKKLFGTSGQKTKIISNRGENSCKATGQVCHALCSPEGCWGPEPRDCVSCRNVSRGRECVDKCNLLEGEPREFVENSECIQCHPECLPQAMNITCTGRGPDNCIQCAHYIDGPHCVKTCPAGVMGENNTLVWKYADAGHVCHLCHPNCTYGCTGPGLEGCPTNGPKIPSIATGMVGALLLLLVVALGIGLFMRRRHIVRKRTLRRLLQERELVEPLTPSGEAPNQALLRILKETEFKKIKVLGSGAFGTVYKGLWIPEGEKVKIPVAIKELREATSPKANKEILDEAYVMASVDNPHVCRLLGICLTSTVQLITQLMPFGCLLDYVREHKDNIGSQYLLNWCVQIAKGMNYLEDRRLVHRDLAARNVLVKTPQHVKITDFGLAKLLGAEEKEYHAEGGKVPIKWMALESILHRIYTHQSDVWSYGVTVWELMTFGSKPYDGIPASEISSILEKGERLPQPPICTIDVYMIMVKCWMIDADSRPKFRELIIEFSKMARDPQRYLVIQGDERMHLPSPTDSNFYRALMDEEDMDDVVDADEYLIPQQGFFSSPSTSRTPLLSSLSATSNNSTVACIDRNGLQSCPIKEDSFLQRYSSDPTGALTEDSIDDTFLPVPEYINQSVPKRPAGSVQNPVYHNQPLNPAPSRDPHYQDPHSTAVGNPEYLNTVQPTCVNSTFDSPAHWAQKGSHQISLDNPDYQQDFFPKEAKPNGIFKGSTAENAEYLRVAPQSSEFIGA
Sequence of PI3Kα (P42336 whole entry): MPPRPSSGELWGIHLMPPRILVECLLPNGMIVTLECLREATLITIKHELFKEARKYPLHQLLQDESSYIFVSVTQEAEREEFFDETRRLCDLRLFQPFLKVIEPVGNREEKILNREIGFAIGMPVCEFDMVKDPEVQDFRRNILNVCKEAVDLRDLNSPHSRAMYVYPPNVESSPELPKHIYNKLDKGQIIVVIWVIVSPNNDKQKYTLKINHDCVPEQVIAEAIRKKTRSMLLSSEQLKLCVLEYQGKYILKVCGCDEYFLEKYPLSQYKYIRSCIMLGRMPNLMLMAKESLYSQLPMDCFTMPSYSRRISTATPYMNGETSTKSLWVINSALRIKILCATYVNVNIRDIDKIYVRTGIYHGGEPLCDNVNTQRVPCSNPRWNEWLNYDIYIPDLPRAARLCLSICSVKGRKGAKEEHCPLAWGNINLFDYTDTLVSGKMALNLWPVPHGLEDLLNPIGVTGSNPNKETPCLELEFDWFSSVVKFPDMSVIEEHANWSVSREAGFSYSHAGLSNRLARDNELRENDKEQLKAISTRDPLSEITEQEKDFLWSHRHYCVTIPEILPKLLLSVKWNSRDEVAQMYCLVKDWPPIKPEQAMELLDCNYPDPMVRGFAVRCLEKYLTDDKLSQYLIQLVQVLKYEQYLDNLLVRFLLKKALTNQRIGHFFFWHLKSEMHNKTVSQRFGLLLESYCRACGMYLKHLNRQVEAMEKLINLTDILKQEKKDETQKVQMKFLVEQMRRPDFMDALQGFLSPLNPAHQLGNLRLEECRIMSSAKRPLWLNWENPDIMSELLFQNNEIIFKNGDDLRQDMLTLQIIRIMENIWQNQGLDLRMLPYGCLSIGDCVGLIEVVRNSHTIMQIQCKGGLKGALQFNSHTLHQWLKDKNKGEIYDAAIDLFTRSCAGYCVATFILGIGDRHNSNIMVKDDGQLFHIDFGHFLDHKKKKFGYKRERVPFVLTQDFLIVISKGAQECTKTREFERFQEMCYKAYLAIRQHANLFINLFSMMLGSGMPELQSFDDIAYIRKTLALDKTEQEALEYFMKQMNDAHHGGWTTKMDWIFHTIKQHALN
Sequence of PI3Kα (P27986 whole entry partner): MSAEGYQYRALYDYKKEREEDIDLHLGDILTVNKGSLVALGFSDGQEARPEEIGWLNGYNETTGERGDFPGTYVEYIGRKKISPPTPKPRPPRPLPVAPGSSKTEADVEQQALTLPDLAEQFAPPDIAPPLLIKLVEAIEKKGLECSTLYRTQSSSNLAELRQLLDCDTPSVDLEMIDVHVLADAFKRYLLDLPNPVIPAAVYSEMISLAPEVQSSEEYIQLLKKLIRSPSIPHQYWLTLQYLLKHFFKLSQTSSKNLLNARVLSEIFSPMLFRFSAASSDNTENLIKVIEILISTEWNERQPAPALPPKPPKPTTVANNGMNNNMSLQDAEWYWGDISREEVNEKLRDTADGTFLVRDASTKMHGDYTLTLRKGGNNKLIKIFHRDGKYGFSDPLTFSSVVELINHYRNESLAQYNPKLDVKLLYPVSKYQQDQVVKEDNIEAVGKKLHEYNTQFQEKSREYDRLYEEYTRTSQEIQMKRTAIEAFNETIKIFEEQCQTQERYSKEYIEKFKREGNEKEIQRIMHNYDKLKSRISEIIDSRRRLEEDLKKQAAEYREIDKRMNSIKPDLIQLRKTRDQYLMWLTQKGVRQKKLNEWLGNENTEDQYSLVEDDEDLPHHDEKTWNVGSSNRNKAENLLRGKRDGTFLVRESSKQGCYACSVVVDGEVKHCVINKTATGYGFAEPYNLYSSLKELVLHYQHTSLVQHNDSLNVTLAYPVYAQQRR

As for `COc1ncc(-c2ccc3ncnc(Nc4cccc(Cl)c4F)c3c2)cc1NS(C)(=O)=O` [Compound 2, N-[5-[4-(3-chloro-2-fluoro-anilino)quinazolin-6-yl]-2-methoxy-3-pyridyl] methanesulfonamide], the results for the inhibition at 0.1 µM in test [1], in test [2] and in test [3] were more than 90%, more than 90% and 80 to 90%, respectively.

`Cc1ncc(-c2ccc3ncnc(Nc4cccc(Cl)c4F)c3c2)cc1NS(C)(=O)=O` [Compound 1, N-[5-[4-(3-chloro-2-fluoro-anilino)quinazolin-6-yl]-2-methyl-3-pyridyl] methanesulfonamide]: the inhibition at 0.1 µM was more than 90% in test [1], 80 to 90% in test [2] and more than 90% in test [3].

Turning to `CS(=O)(=O)Nc1cncc(-c2ccc3ncnc(Nc4cccc(Cl)c4F)c3c2)c1` [Compound 3, N-[5-[4-(3-chloro-2-fluoro-anilino)quinazolin-6-yl]-3-pyridyl] methanesulfonamide], the inhibition at 0.1 µM was more than 90% in test [1], 10 to 80% in test [2] and 80 to 90% in test [3].
